Here are results for one compound from patent US11136320B2, “Fused ring derivative used as FGFR4 inhibitor” (JACOBIO PHARMACEUTICALS CO., LTD., priority 2019, dated 2021).

Series [1] can be described thus: PK analysis of rats. Format: in vivo. Particulars: SD rats, p.o. (10 mg/kg).
A short description of series [2]: PK/PD of NOD-SCID mouse (drug concentration in blood and in tumors). It counts as in vivo. Particulars: for AUC(0-inf) / Cmax / Tmax / half-life / AUC(0-t) / concentration at 4 h / concentration at 6 h: NOD-SCID, mouse, po, 50 mg/kg, p.o. (50 mg/kg); for AUC(0-inf) / Cmax / Tmax / half-life / AUC(0-t): plasma; for AUC(0-t): read-out: AUC0-6 h; for concentration at 4 h / concentration at 6 h: tumor. The method, then: This experiment conducted when the pharmacological experiment in vivo was performed by gavage administration, wherein, the blood samples and tumor samples were taken at different time points to detect drug concentration in blood and drug concentrations in tumors.
(1) Mode of administration: gavage administration;
(2) Dosage: 50 mg/kg in the gavage administration;
Three mice were sampled at each sampling point;
(4) Blood sample collection: 200 μL of orbital blood was collected at sampling time point for each blood sample. After anticoagulation with heparin, the blood was centrifuged at 5500 rpm for 10 mins. 60 μL of the supernatant was taken and put it into the refrigerator at −80° C. for waiting for testing.
Tumour sample collection: 200-300 mg of each tumor tissue was taken. The tumor weight was marked, quickly freezed in liquid nitrogen and placed into a refrigerator at −80° C. for waiting for testing.
Tumour sample processing: pure water was added into the tumor sample according to a ratio of […] between the weight of the tumor sample and the volume of pure water and then it was homogenized. The homogenate was stored at −90° C. to −60° C. until the sample was analyzed. After 5 μL of acetonitrile/water (v/v=1:1) was added into 50 μL of tumor sample homogenate, 200 μL of acetonitrile (containing Dexamethasone 100 ng/ml as internal standard, or containing Verapamil 2 ng/ml as internal standard) was added. After protein precipitation, the resulting mixture was vortexed for 2 mins at 4° C. with 4600 g, and then centrifuged for 15 mins to obtain the supernatant. 100 μL of the supernatant was taken and added into 200 μL of deionized water. 5500 LC/MS/MS analyser was used for sample injection and analysis, after vortexing for homogeneity. The conditions for chromatographic separation and mass spectrometric analysis were as follows: […]

Series [3] has as its system Hep3B. Put plainly: Pharmacodynamic in vivo, Hep3B model tumor growth inhibition. The arrangement: species or system NOD-SCID mice. From the text: The Hep3B cell line was purchased from ATCC; MEM cell culture medium, fetal bovine serum, and trypsin were purchased from Gibco; cell culture flasks were purchased from Greiner; and disposable Cell Counting Plate and taittinger Blue Solution Purchased from Bio-Rad. The disposable sterile syringe was purchased from Changzhou Jinlong Medical Plastic Instrument Co., Ltd, eye surgical scissors and eye surgical forceps were purchased from Shanghai Medical Instrument (Group) Co., Ltd. Surgical Instrument Factory, and 6-8 week old female NOD-SCID mice were purchased from Vitalivar.
a. One strain of Hep3B cells was taken out from the cell bank and MEM medium (MEM+10% FBS+1% PS) was used to recover the cells. The resuscitated cells were placed in a cell culture flask (the wall the flask was marked with the cell type, date, cultivator's name), and the cell culture flask was placed in a CO2 incubator (the temperature of the incubator was 37° C. and the CO2 concentration of the incubator was 5%);
b. When the cells covered about 90% of the bottom of the culture flask, passage was conducted. the cells were continued to cultivate in a CO2 incubator after passage. The above process was repeated until the number of the cell satisfied the requirements of pharmacodynamic in vivo;
c. The cultured cells were collected and counted using a BIO-Rad TC20 cell counter. According to the counting results, the cultured cells were resuspended with PBS and matrix gel (1:1) to obtain a cell suspension (density 5×10^7/ml), and the cell suspension was placed in an ice box for later use.
a. The cells were mixed well before seeding, and 0.5 ml of cell suspension was taken with a 1 ml syringe and bubbles in the cell suspension were removed. The syringe with the cell suspension was place on an ice pack for later use.
b. The NOD-SCID mice were set with the left hand, and the skin on the right back of the mice was disinfected with 75% alcohol. The inoculation was beginning after 30 seconds.
c. During inoculation, 1 mL syringe was on the right hand, and the cell suspension of Hep3B was inoculated subcutaneously into the right shoulder of the right back of the mouse at 0.1 mL/mouse. At inoculation interval, the syringe was placed on an ice pack and the mice were inoculated sequentially.
d. According to the tumor growth, the tumor was measured and the tumor size was calculated on the 12-15 days after inoculation.
Tumor volume calculation: tumor volume (mm^3)=length (mm)×width (mm)×width (mm)/2
e. When the tumors grew to an average volume of 100-150 mm^3, the mice were randomly divided into two groups according to tumor size and the weight of the mouse. […]
f. […] Tumors were measured and the mice were weighed twice a week after administration. […]

Series [4] addresses T1, FGFR4 kinase (Homo sapiens (Human), UniProt P22455).
Series [5] has as its target T1, FGFR4 kinase. The series can be described thus: biochemical.

Structures are written as SMILES.

T1 sequence (P22455 22-802): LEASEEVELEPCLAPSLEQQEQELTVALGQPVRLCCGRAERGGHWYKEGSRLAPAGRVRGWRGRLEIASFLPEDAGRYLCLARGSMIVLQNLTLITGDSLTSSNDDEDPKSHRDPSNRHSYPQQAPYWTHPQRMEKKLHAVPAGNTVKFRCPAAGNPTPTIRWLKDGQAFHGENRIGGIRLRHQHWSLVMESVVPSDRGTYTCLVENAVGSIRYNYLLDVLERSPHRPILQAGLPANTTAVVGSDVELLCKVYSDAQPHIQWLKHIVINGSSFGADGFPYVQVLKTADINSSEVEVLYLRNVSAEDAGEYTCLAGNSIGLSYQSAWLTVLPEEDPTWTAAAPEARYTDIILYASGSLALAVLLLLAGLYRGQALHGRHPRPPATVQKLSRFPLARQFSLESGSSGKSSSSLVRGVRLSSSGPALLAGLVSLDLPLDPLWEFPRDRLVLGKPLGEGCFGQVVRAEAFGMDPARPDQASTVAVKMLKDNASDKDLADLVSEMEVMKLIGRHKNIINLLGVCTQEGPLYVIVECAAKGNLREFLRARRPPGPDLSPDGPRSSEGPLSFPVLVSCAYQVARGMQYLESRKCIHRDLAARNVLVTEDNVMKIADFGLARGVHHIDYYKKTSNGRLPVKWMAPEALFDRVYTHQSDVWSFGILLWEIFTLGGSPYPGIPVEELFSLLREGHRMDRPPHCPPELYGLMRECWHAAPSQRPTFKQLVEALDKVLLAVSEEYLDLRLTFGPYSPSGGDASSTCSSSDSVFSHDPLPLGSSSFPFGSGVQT

For orientation: AUC(0-inf) means total exposure, with the tail of the curve extrapolated. A lower AUC(0-inf) goes with low exposure. The term Tmax denotes the time from dosing to the highest level. Usually half-life stands for the time in which the quantity being followed falls by half. Low values mean fast loss, high ones slow loss. One may read the IC50 as the midpoint of a concentration-inhibition curve. `CSC[C@@H](C)Nc1cc(NC(=O)N2CCCc3cc(CN4CCN(C)CC4=O)c(C=O)nc32)ncc1C#N` [Compound 4, (R)—N-(5-Cyano-4-((1-(methylthio)propan-2-yl)amino)pyridin-2-yl)-7-formyl-6-((4-methyl-2-oxopiperazin-1-yl)methyl)-3,4-dihydro-1,8-naphthyridine-1 (2H)-carboxamide]: the “exposure amount AUC0-24 h and maximum drug concentration in blood Cmax compared with the reference compound” value in series [1] was “significantly higher than the reference compound”. For the same compound, in series [1] (rat, plasma, po, read-out: Curve area AUC0-24 h), the AUC(0-t) was determined as 4670 ng·h/mL. In addition, the Cmax in series [1] (rat, plasma, po, read-out: Drug concentration in blood Cmax) was found to be 1450 ng/mL. In addition, in series [2] (Hep3B model, 4 h or 6 h), the “content in tumor tissue relative to the reference compound” value is reported as “more than 15 times”. Further, in series [2] (Hep3B model), the AUC(0-inf) turned out to be 3360 ng·h/mL, the Cmax was 1020 ng/mL, the Tmax was 2 h and the half-life was 1.48 h. Also, in series [2] (Hep3B model), the AUC(0-t) came out at 3020 ng·h/mL and the concentration at 4 h is 1210 ng/g. In series [2] (SNU878 model), the AUC(0-inf) was determined as 4260 ng·h/mL, the Cmax is 1230 ng/mL, the Tmax worked out at 1 h and the half-life is 2.3 h. For the same compound, in series [2] (SNU878 model), the AUC(0-t) was found to be 3530 ng·h/mL and the concentration at 4 h was 2340 ng/g. Further, the concentration at 6 h in series [2] (Hep3B model, 6 h) turned out to be 673 ng/g. Moreover, in series [2] (SNU878 model, 6 h), the concentration at 6 h came out at 1950 ng/g and the “content in tumor tissue relative to the reference compound” value is recorded as “about twice”. For the same compound, in series [3], the antitumor effect entry is “excellent antitumor effect” and the “effect of 15 mg/kg BID compared with 60 mg/kg QD of the reference compound” value was “equivalent”. This compound registered a TGI % in series [3] (15 mg/kg BID, gavage) of 96.7%. Moreover, in series [4], the “inhibitory effect on FGFR4 compared with the reference compound” value is listed as “better inhibitory effect on FGFR4 than the reference compound”. Besides, the IC50 in series [5] came to 1.4 nM.
